In this assay the target is T1, hGIP-R (Homo sapiens, UniProt P48546).
T1 construct: expressed in transfected cells; host or cells: HEK-293 clonal cell lines
T1 sequence (P48546 22-466): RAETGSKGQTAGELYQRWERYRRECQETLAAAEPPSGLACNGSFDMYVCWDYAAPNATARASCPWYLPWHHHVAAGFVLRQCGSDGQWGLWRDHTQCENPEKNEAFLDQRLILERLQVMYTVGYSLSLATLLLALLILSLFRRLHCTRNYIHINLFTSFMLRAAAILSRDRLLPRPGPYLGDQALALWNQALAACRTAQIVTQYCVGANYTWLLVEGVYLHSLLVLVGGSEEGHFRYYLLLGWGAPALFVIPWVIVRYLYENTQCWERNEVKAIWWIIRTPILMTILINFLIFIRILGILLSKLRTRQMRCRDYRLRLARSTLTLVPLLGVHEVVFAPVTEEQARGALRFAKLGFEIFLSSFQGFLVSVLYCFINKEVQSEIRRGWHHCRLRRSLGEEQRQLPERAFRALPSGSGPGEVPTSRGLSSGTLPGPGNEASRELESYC
In words: Functional hGIP-R Assay (cAMP formation, HTRF). The format is cell-based. The conditions noted are these: for Emax: cAMP efficacy, percent of maximal response to GIP(1-42)OH, 37° C., 0.1% bovine casein, arithmetic mean ± SEM; for EC50: cAMP potency, HEK-293 cells expressing hGIP-R, incubated at 37° C. in the presence of 0.1% bovine casein, geometric mean, read-out: Human GIP-R EC50, nM (SEM, n). The gist of the method:
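Relative EC50 and Emax came from four-parameter logistic fits of cAMP as a percent of the human GIP (1-42) OH maximal response. The cAMP was measured by competitive HTRF after 30 min, 37 °C compound exposure of hGIP-R HEK-293 clones in IBMX (250 μM)-containing medium.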
On the technique in general: Cyclic AMP is a second messenger, typically raised through Gs and lowered through Gi signalling.

The text below walks through data of patent publication US20260108546A1 (ELI LILLY AND COMPANY, priority 2024, published 2026).

The Emax is the maximal effect, on the per cent scale that the assay sets. What is called EC50 is the concentration giving half of the maximal effect.

SMILES strings stand for the structures.

For `Cc1nc(-c2cnc3nc(C4CC4)cn3c2)ccc1[C@H]1C[C@@]12CCN([C@H](Cc1cnn(C(F)F)c1)C(=O)NC(C)(C)Cn1nc(C(F)(F)F)cc1-c1cc(F)c(=O)n(C)c1)C2=O` [Example 170, (R)-2-((1R,3R)-1-(6-(2-cyclopropylimidazo[1,2-a]pyrimidin-6-yl)-2-methylpyridin-3-yl)-4-oxo-5-azaspiro[2.4]heptan-5-yl)-3-(1-(difluoromethyl)-1H-pyrazol-4-yl)-N-(1-(5-(5-fluoro-1-methyl-6-oxo-1,6-dihydropyridin-3-yl)-3-(trifluoromethyl)-1H-pyrazol-1-yl)-2-methylpropan-2-yl)propanamide], the Emax was 97.2 ± 0.998% and the EC50 came out at 0.846 nM.

`Cc1nc(-c2ccc(C(C)(C)O)nc2)ccc1[C@H]1C[C@@]12CCN([C@H](Cc1cnn(C(F)F)c1)C(=O)NC(C)(C)Cn1nc(C(F)(F)F)cc1-c1ccn(C3CC3)c(=O)c1)C2=O` [Example 171, (R)-N-(1-(5-(1-cyclopropyl-2-oxo-1,2-dihydropyridin-4-yl)-3-(trifluoromethyl)-1H-pyrazol-1-yl)-2-methylpropan-2-yl)-3-(1-(difluoromethyl)-1H-pyrazol-4-yl)-2-((1R,3R)-1-(6′-(2-hydroxypropan-2-yl)-6-methyl-[2,3′-bipyridin]-5-yl)-4-oxo-5-azaspiro[2.4]heptan-5-yl)propanamide]: the maximum response (Emax) came to 25.1 ± 2.38% and the EC50 is 14.2 nM.

`COc1ccc(-c2ccc([C@H]3C[C@@]34CCN([C@H](Cc3cnn(C(F)F)c3)C(=O)NC(C)(C)Cn3nc(C(F)(F)F)cc3-c3ccn(C5CC5)c(=O)c3)C4=O)c(C)n2)cn1` [Example 172, (R)-N-(1-(5-(1-cyclopropyl-2-oxo-1,2-dihydropyridin-4-yl)-3-(trifluoromethyl)-1H-pyrazol-1-yl)-2-methylpropan-2-yl)-3-(1-(difluoromethyl)-1H-pyrazol-4-yl)-2-((1R,3R)-1-(6′-methoxy-6-methyl-[2,3′-bipyridin]-5-yl)-4-oxo-5-azaspiro[2.4]heptan-5-yl)propanamide]: the Emax is 12.6 ± 0.102% and the concentration for a half-maximal effect (EC50) came out at 3.16 nM.

On to `COc1ncc(-c2ccc([C@H]3C[C@@]34CCN([C@H](Cc3cnn(C(F)F)c3)C(=O)NC(C)(C)Cn3nc(C(F)(F)F)cc3-c3ccn(C5CC5)c(=O)c3)C4=O)c(C)n2)cn1` [Example 173, (R)-N-(1-(5-(1-cyclopropyl-2-oxo-1,2-dihydropyridin-4-yl)-3-(trifluoromethyl)-1H-pyrazol-1-yl)-2-methylpropan-2-yl)-3-(1-(difluoromethyl)-1H-pyrazol-4-yl)-2-((1R,3R)-1-(6-(2-methoxypyrimidin-5-yl)-2-methylpyridin-3-yl)-4-oxo-5-azaspiro[2.4]heptan-5-yl)propanamide], for which the Emax was 15.9 ± 0.138% and the EC50 was 24.6 nM.

With `COc1ncc(-c2ccc([C@H]3C[C@@]34CCN([C@H](Cc3cnn(C(F)F)c3)C(=O)NC(C)(C)Cn3nc(C(F)(F)F)cc3-c3ccn(C5CC5)c(=O)c3)C4=O)c(C)n2)cc1F` [Example 174, (R)-N-(1-(5-(1-cyclopropyl-2-oxo-1,2-dihydropyridin-4-yl)-3-(trifluoromethyl)-1H-pyrazol-1-yl)-2-methylpropan-2-yl)-3-(1-(difluoromethyl)-1H-pyrazol-4-yl)-2-((1R,3R)-1-(5′-fluoro-6′-methoxy-6-methyl-[2,3′-bipyridin]-5-yl)-4-oxo-5-azaspiro[2.4]heptan-5-yl)propanamide], the Emax is 13.4 ± 1.64% and the EC50 came out at 6.09 nM.

As to `[2H]C([2H])([2H])n1cc(C[C@H](C(=O)NC(C)(C)Cn2nc(C(F)(F)F)cc2-c2ccc(C)nc2)N2CC[C@@]3(C[C@@H]3c3ccc(-c4cnc5nc(C6CC6)cn5c4)nc3C)C2=O)cn1` [Example 175, (R)-2-((1R,3R)-1-(6-(2-cyclopropylimidazo[1,2-a]pyrimidin-6-yl)-2-methylpyridin-3-yl)-4-oxo-5-azaspiro[2.4]heptan-5-yl)-N-(2-methyl-1-(5-(6-methylpyridin-3-yl)-3-(trifluoromethyl)-1H-pyrazol-1-yl)propan-2-yl)-3-(1-(methyl-d3)-1H-pyrazol-4-yl)propanamide], the Emax came to 112 ± 1.44% and the EC50 stood at 0.996 nM.

For `COCc1cn2cc(-c3ccc([C@H]4C[C@@]45CCN([C@H](Cc4cnn(C(F)F)c4)C(=O)NC(C)(C)Cn4nc(C(F)(F)F)cc4-c4cncc(C)n4)C5=O)c(C)n3)cnc2n1` [Example 176, (R)-3-(1-(difluoromethyl)-1H-pyrazol-4-yl)-2-((1R,3R)-1-(6-(2-(methoxymethyl)imidazo[1,2-a]pyrimidin-6-yl)-2-methylpyridin-3-yl)-4-oxo-5-azaspiro[2.4]heptan-5-yl)-N-(2-methyl-1-(5-(6-methylpyrazin-2-yl)-3-(trifluoromethyl)-1H-pyrazol-1-yl)propan-2-yl)propanamide], the Emax was found to be 123% and the EC50 was 14.4 nM.

For the molecule `Cc1cn2cc(-c3ccc([C@H]4C[C@@]45CCN([C@H](Cc4cnn(C(F)F)c4)C(=O)NC(C)(C)Cn4nc(C(F)(F)F)cc4-c4ccc(C(C)(C)O)nc4)C5=O)c(C)n3)cnc2n1` [Example 178, (R)-3-(1-(difluoromethyl)-1H-pyrazol-4-yl)-N-(1-(5-(6-(2-hydroxypropan-2-yl)pyridin-3-yl)-3-(trifluoromethyl)-1H-pyrazol-1-yl)-2-methylpropan-2-yl)-2-((1R,3R)-1-(2-methyl-6-(2-methylimidazo[1,2-a]pyrimidin-6-yl)pyridin-3-yl)-4-oxo-5-azaspiro[2.4]heptan-5-yl)propanamide], the Emax turned out to be 39.9 ± 0.556% and the EC50 worked out at 0.743 nM.

Turning to `Cc1ncc(-c2cc(C(F)(F)F)nn2CC(C)(C)NC(=O)[C@@H](Cc2cnn(C(F)F)c2)N2CC[C@@]3(C[C@@H]3c3ccc(-c4cnc5nn(C6CC6)cc5c4)nc3C)C2=O)cn1` [Example 179, (R)-2-((1R,3R)-1-(6-(2-cyclopropyl-2H-pyrazolo[3,4-b]pyridin-5-yl)-2-methylpyridin-3-yl)-4-oxo-5-azaspiro[2.4]heptan-5-yl)-3-(1-(difluoromethyl)-1H-pyrazol-4-yl)-N-(2-methyl-1-(5-(2-methylpyrimidin-5-yl)-3-(trifluoromethyl)-1H-pyrazol-1-yl)propan-2-yl)propanamide], the Emax worked out at 75.9 ± 4.59% and the EC50 is 2.95 nM.

Take `COc1nnc(C)cc1-c1cc(C(F)(F)F)nn1CC(C)(C)NC(=O)[C@@H](Cc1cnn(C(F)F)c1)N1CC[C@@]2(C[C@@H]2c2ccc(-c3cnc4nn(C)cc4c3)nc2C)C1=O` [Example 180, (R)-3-(1-(difluoromethyl)-1H-pyrazol-4-yl)-N-(1-(5-(3-methoxy-6-methylpyridazin-4-yl)-3-(trifluoromethyl)-1H-pyrazol-1-yl)-2-methylpropan-2-yl)-2-((1R,3R)-1-(2-methyl-6-(2-methyl-2H-pyrazolo[3,4-b]pyridin-5-yl)pyridin-3-yl)-4-oxo-5-azaspiro[2.4]heptan-5-yl)propanamide]: the Emax was determined as 35.4 ± 1.96% and the EC50 was 7.75 nM.

Consider `COC(=O)N(C)c1cc([C@H]2C[C@@H]2C(=O)N[C@H](Cc2cnn(C(F)F)c2)C(=O)NC(C)(C)Cn2nc(C(F)(F)F)cc2-c2cc(F)c(=O)n(C)c2)c(F)cc1O` [Example 181, Methyl (5-((1S,2S)-2-(((R)-3-(1-(difluoromethyl)-1H-pyrazol-4-yl)-1-((1-(5-(5-fluoro-1-methyl-6-oxo-1,6-dihydropyridin-3-yl)-3-(trifluoromethyl)-1H-pyrazol-1-yl)-2-methylpropan-2-yl)amino)-1-oxopropan-2-yl)carbamoyl)cyclopropyl)-4-fluoro-2-hydroxyphenyl)(methyl)carbamate], for which the Emax amounted to 25.5 ± 2.92% and the EC50 stood at 23.1 nM.

For the molecule `Cn1cc(-c2cc(C(F)(F)F)nn2CC(C)(C)NC(=O)[C@@H](Cc2cnn(C(F)F)c2)NC(=O)[C@H]2C[C@@H]2c2ccc3c(c2)n(C)c(=O)n3C)cc(F)c1=O` [Example 182], the Emax is 30.4 ± 2.08% and the EC50 amounted to 41.4 nM.

For the molecule `Cn1cc(-c2cc(C(F)(F)F)nn2CC(C)(C)NC(=O)[C@@H](Cc2cnn(C(F)F)c2)NC(=O)[C@H]2C[C@@H]2c2ccc3c(Cl)nn(C)c3c2)cc(F)c1=O` [Example 183, (1S,2S)-2-(3-chloro-1-methyl-1H-indazol-6-yl)-N-((R)-3-(1-(difluoromethyl)-1H-pyrazol-4-yl)-1-((1-(5-(5-fluoro-1-methyl-6-oxo-1,6-dihydropyridin-3-yl)-3-(trifluoromethyl)-1H-pyrazol-1-yl)-2-methylpropan-2-yl)amino)-1-oxopropan-2-yl)cyclopropane-1-carboxamide], the Emax was found to be 4.64 ± 0.608% and the EC50 stood at 44.9 nM.
